Values after ≈ are worked out from the molar mass of the structure shown.
settings: buffer; pH 7.4; 200.0 µM

SMILES	solubility kinetic [µg/mL]
COC(=O)c1sc(-c2ccc(Cl)cc2)cc1NC(=O)COCC(=O)O	28.1 (≈ 73.2 µM)
COc1cc(N)ccc1NC(=O)c1cc2ccccc2o1	> 42.3
CC(C)(C)C(=O)/C=C1\NC(=O)CS1	> 29.9
O=C(CSc1nc2ccccc2[nH]1)c1c[nH]c2ccccc12	0.6 (≈ 1.95 µM)
Cc1ccc(/C(N)=N/OC(=O)C(C)c2ccc([N+](=O)[O-])cc2)cc1 (stereo not drawn)	8.3 (≈ 25.4 µM)
O=c1[nH]c(=O)n(CCc2ccccc2)c(O)c1C=NC1CC1	10.3 (≈ 34.4 µM)
O=C(Nc1cccc(S(=O)(=O)N2CCCCC2)c1)C1COc2ccccc2O1 (stereo not drawn)	6.6 (≈ 16.4 µM)
O=C(O)C1C2CCC(CC2)C1C(=O)N1CCN(Cc2ccc(F)cc2)CC1 (stereo not drawn)	> 56.2
Nc1ccc(SC(F)(F)F)cc1	6 (≈ 31.1 µM)
C=CCc1ccccc1OCC(O)CNC(=O)c1ccccc1C(=O)O (stereo not drawn)	> 53.3
COc1ccc(CC(=O)N2CCN(c3ccccc3OC)CC2)cc1OC	51.5 (≈ 139 µM)
O=C(CSc1ncccn1)Nc1ccc2c(c1)CCC2	37.9 (≈ 133 µM)
COC(=O)c1c(C)[nH]c(C(=O)/C=C/c2ccc(C)cc2)c1C	1.7 (≈ 5.72 µM)
Cc1ccc(NC(=O)CN2CCOCC2)cc1S(=O)(=O)N1CCCCC1	> 57.2
Cn1c(SCC(=O)NC2CCCC2)nnc1-c1ccco1	> 46
CC1(C)CC(=O)C=C(NCC(O)c2ccccc2)C1 (stereo not drawn)	36.7 (≈ 142 µM)
CCN(CC)CCNC(=O)c1cc2ccccc2nc1Cl	31.2 (≈ 102 µM)
CN(Cc1ccc(F)cc1Cl)S(=O)(=O)c1cccs1	6.8 (≈ 21.3 µM)
Cc1csc(NC(=O)[C@@H]2CCCN2C(=O)c2cccs2)n1	44.2 (≈ 138 µM)
Cn1c(N2CCOCC2)cc(=O)n(C)c1=O	29.3 (≈ 130 µM)
O=C(O)CNC(=O)/C(=C\c1ccco1)NC(=O)c1ccco1	> 45.6
Cn1c(COc2ccc(C(=O)O)cc2)nc2ccccc21	> 42.3
CCC(=O)N/C(N)=N/c1nc2ccccc2o1	14.8 (≈ 63.7 µM)
O=C(N[C@@H](Cc1c[nH]c2ccccc12)C(=O)O)c1ccccc1Cl	45.8 (≈ 134 µM)

SMILES	solubility kinetic [µg/mL]
c1ccc(-c2ncc3ccccn23)cc1	19.1 (≈ 98.3 µM)
Cc1cccc(N2CC(O)(c3cccs3)[N+]3=C2CCCCC3)c1.[Br-] (stereo not drawn)	> 61.1
Cc1ccccc1-c1nc(-c2ccc(Br)o2)no1	1 (≈ 3.28 µM)
Cc1ccc(NC(=O)CN2C(=O)c3ccccc3S2(=O)=O)c(C)c1	2.7 (≈ 7.84 µM)
COc1ccccc1C(=O)COC(=O)c1cnc(C)cn1	> 42.9
CCCC(=O)Nc1cccc(Oc2ccc3c(c2)C(=O)NC3=O)c1	11.6 (≈ 35.8 µM)
COc1cccc2cc(/C(=N/O)c3ccccc3)oc12	< 0.6
Cc1cc(C)cc(NC(=O)CCN2CCCC2)c1	35.3 (≈ 143 µM)
COc1cccc(CNC(=O)CCC(=O)N2CCOCC2)c1	> 46
CC1CCCN(C(=O)/C(=C/c2ccco2)NC(=O)c2ccccc2)C1 (stereo not drawn)	> 50.8
CCOC(=O)c1c(N)sc(N)c1C(=O)OCC	29.9 (≈ 116 µM)
CCN(CC)Cc1c(O)ccc2c(=O)c(-c3ccccc3OC)coc12	> 53
Cc1ccc2[nH]cc(CCNC(=O)c3ccco3)c2c1	38.1 (≈ 142 µM)
CC(C)(C)NC(=O)CN1C(=O)/C(=C/c2ccccc2)SC1=S	1.1 (≈ 3.29 µM)
Cc1ccc2[nH]c3c(c2c1)CNCC3.Cl	31.7
O=C(c1cccc([N+](=O)[O-])c1)c1ccccn1	> 34.2
O=S(=O)(NCCC1=CCCCC1)c1ccc(F)cc1	16.9 (≈ 59.6 µM)
CN1CCC(NC(=O)c2cccc(Oc3ccccc3)c2)CC1	> 46.6
O=C(O)CCn1c(Cc2ccccc2)nc2ccccc21	> 42
O=C(NC1CC(=O)c2sccc21)c1ccc(Cl)cc1Cl (stereo not drawn)	> 48.9
CCn1c(N2CCN(C(=O)c3ccco3)CC2)nc2ccccc21	35.8 (≈ 110 µM)
COc1ccc(-c2cc(C(=O)N3CCCC3)no2)cc1OC	43.8 (≈ 145 µM)
CCOc1ccc2nc(SCC(=O)NCc3ccc(S(N)(=O)=O)cc3)[nH]c2c1	35.2 (≈ 83.7 µM)
CC1(C)OCC(COC(=O)Nc2cccnc2)([N+](=O)[O-])CO1	39.8 (≈ 128 µM)

Reference: PubChem BioAssay AID1996
